# Measurements published in patent publication US20240116985A1, “STAPLED PEPTIDES AND METHODS THEREOF” (priority 2020, published 2024).
# Where two headings read alike, the source gives them in different places.
# Tests used:
# [1] = target: T1, full-length beta-Catenin (Uniprot ID P35222) (Homo sapiens, UniProt P35222); test: Fluorescence polarization IC50 (beta-catenin / 5FAM-TCF4 10-53 competition); assay type: binding
# T1 construct: 10 nM full-length beta-Catenin (Uniprot ID P35222)
# T1 sequence (P35222 1-781): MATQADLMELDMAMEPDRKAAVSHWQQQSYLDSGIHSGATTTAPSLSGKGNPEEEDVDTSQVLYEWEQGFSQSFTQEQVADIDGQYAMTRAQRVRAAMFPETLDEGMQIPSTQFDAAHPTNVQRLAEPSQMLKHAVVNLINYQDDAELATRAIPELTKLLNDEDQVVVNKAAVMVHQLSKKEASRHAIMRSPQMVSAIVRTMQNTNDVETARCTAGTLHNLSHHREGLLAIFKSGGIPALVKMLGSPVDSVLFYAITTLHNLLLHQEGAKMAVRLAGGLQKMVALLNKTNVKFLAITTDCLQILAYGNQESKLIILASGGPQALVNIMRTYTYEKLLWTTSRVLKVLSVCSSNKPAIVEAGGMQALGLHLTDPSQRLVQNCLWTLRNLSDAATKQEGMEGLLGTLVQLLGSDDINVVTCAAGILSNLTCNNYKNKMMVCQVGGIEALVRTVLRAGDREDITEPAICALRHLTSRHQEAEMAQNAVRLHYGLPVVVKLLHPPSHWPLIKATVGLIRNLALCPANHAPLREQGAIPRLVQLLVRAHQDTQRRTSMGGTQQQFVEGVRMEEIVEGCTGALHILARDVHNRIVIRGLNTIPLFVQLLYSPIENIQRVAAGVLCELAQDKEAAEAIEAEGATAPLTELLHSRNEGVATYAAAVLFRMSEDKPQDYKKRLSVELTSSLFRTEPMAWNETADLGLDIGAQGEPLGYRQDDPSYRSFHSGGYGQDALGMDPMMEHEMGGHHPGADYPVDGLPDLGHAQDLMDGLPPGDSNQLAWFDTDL
# CHI Log D procedure = assay type: physicochemical; conditions: for chromatographic logD: pH 7.4, CHI Log D; for CHI Log D: pH 7.4
# Solubility in PBS = assay type: physicochemical
# In short: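 PBS sample ultracentrifuged; supernatant run on HPLC vs. 50 μM peptide in DMSO standard. Solubility = (PBS peak area / DMSO peak area) × 50 uM.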
# [2] = target: T2, beta-catenin/TCF4 engagement (Homo sapiens, UniProt P35222); test: Nano-BRET target engagement assay (B-cat-Halo & TCF4-Luc in HEK293 cells); assay type: cell-based; conditions: read-out: NanoBRET Abs IC50
# T2 construct: expressed in transfected cells; host or cells: HEK293
# T2 sequence (P35222 1-781): T1 sequence (P35222 1-781)
# [3] = fluorescence polarization, read-out: beta-Catenin FP IC50
SMILES,IC50 ([1]; read-out: beta-Catenin FP IC50) [nM],chromatographic logD (CHI Log D procedure),Solubility (Solubility in PBS; Solubility (uM)) [µM],IC50 [2] [nM],"IC50 [1, 3] [nM]",IC50 ([1]; read-out: FP EC50) [nM],CHI Log D (CHI Log D procedure),Solubility (Solubility in PBS) [µM],IC50 ([2]; absolute IC50) [nM]
"CC(=O)N1CCC[C@]12CC=CCCCC1(CCCC=CCCCOC(=O)N3CC[C@@](C(=O)N[C@@H](Cc4ccsc4)C(=O)N[C@@H](Cc4csc5ccccc45)C(=O)N[C@@H](CCC(N)=O)C(=O)N[C@@H](CCCCNC(=O)c4ccc5ccccc5c4)C(N)=O)(C3)NC(=O)[C@H](CC(N)=O)NC(=O)[C@H](Cc3ccccc3)NC(=O)[C@H](C)NC(=O)[C@H](C)NC(=O)[C@H](CC(=O)O)NC(=O)[C@H](CC(=O)O)NC1=O)NC(=O)[C@H](CC(C)(C)C)NC(=O)[C@H](CC(=O)O)NC2=O (stereo partly drawn) [I-915, Ac-PL3-Asp-Npg-B5-Asp-Asp-Ala-Ala-Phe-Asn-PyrS2-3Thi-BztA-Gln-[2Napc]Lys-NH2]",28,2.33,41,15500,–,–,–,–,–
"CC(=O)N1CCC[C@]12CC=CCCCC1(CCCC=CCCCOC(=O)N3CC[C@@](C(=O)N[C@@H](Cc4ccsc4)C(=O)N[C@@H](Cc4csc5ccccc45)C(=O)N[C@@H](Cc4c[nH]cn4)C(N)=O)(C3)NC(=O)[C@H]([C@@H](C)O)NC(=O)[C@H](Cc3ccccc3)NC(=O)[C@H](C)NC(=O)[C@H](C)NC(=O)[C@H](CC(=O)O)NC(=O)[C@H](CC(=O)O)NC1=O)NC(=O)[C@H](CC(C)(C)C)NC(=O)[C@H](CC(=O)O)NC2=O (stereo partly drawn) [I-810, Ac-PL3-Asp-Npg-B5-Asp-Asp-Ala-Ala-Phe-Thr-PyrS2-3Thi-BztA-His-NH2]",6,2.17,39,18000,–,–,–,–,–
"CC[C@H](C)[C@@H]1NC(=O)[C@H](CC(=O)O)NC(=O)[C@]2(CC=CCCCC3(CCCC=CCCCCCC[C@@](C)(C(=O)N[C@@H](Cc4ccccc4OC)C(=O)N[C@@H](Cc4csc5ccccc45)C(=O)N[C@@H](CCC(N)=O)C(N)=O)NC(=O)[C@H](CC(N)=O)NC(=O)[C@H](Cc4ccccc4)NC(=O)[C@H](C)NC(=O)[C@H](C)NC(=O)[C@H](CC(=O)O)NC(=O)[C@H](CC(=O)O)NC3=O)NC1=O)CCCN2C(C)=O (stereo partly drawn) [I-550, Ac-PL3-Asp-Ile-B5-Asp-Asp-Ala-Ala-Phe-Asn-S8-2OMeF-BztA-Gln-NH2]",–,–,–,–,30,30,2.343,50,21400
"CC(=O)N1CCC[C@]12CC=CCCCC1(CCCC=CCCCCOC(=O)N3CC[C@@](C(=O)N[C@@H](Cc4ccsc4)C(=O)N[C@@H](Cc4csc5ccccc45)C(=O)N[C@@H](CCC(N)=O)C(N)=O)(C3)NC(=O)[C@H](CC(N)=O)NC(=O)[C@H](Cc3ccccc3)NC(=O)[C@H](C)NC(=O)[C@H](C)NC(=O)[C@H](CC(=O)O)NC(=O)[C@H](CC(=O)O)NC1=O)NC(=O)[C@H](CC(C)(C)C)NC(=O)[C@H](CC(=O)O)NC2=O (stereo partly drawn) [I-767, Ac-PL3-Asp-Npg-B5-Asp-Asp-Ala-Ala-Phe-Asn-PyrS3-3Thi-BztA-Gln-NH2]",12,–,–,37200,–,12,2.004,50,–
"CC[C@H](C)[C@@H]1NC(=O)[C@H](CC(=O)O)NC(=O)[C@]2(CC=CCCCC3(CCCC=CCCCCCC[C@@](C)(C(=O)N[C@@H](Cc4ccccc4)C(=O)N[C@@H](Cc4csc5ccccc45)C(=O)N[C@@H](CCC(N)=O)C(N)=O)NC(=O)[C@H](CCC(N)=O)NC(=O)[C@H](Cc4ccccc4)NC(=O)[C@H](CO)NC(=O)[C@H](C)NC(=O)[C@H](CCC(=O)O)NC(=O)[C@H](CC(=O)O)NC3=O)NC1=O)CCCN2C(C)=O (stereo partly drawn) [I-662, Ac-PL3-Asp-Ile-B5-Asp-Glu-Ala-Ser-Phe-Gln-S8-Phe-BztA-Gln-NH2]",–,–,–,–,26,26,2.125,46,16100
"CC(=O)N1CCC[C@]12CC=CCCCC1(CCCC=CCCCOC(=O)N3CC[C@@](C(=O)N[C@@H](Cc4ccccc4Cl)C(=O)N[C@@H](Cc4csc5ccccc45)C(=O)N[C@@H](CCC(N)=O)C(N)=O)(C3)NC(=O)[C@H](CO)NC(=O)[C@H](Cc3ccc(C(F)(F)F)cc3)NC(=O)[C@H](C)NC(=O)[C@H](C)NC(=O)[C@H](CC(=O)O)NC(=O)[C@H](CC(=O)O)NC1=O)NC(=O)[C@H](CC1CCCCC1)NC(=O)[C@H](CC(=O)O)NC2=O (stereo partly drawn) [I-1120, Ac-PL3-Asp-Cha-B5-Asp-Asp-Ala-Ala-4F3MeF-Ser-PyrS2-2C1F-BztA-Gln-NH2]",85,2.54,41,> 20000,–,–,–,–,–
"CC(=O)N1CCC[C@]12CC=CCCCC1(CCCC=CCCCCCC[C@@](C)(C(=O)N[C@@H](Cc3ccccc3)C(=O)N[C@@H](Cc3csc4ccccc34)C(N)=O)NC(=O)[C@H](CCCNC(N)=O)NC(=O)[C@H](Cc3ccccc3)NC(=O)[C@H](C)NC(=O)[C@H](C)NC(=O)[C@H](CCC(=O)O)NC(=O)[C@H](CC(=O)O)NC1=O)NC(=O)[C@H](CC(C)C)NC(=O)[C@H](CC(=O)O)NC2=O (stereo partly drawn) [I-629, Ac-PL3-Asp-Leu-B5-Asp-Glu-Ala-Ala-Phe-Cit-S8-Phe-BztA-NH2]",–,–,–,–,36,685,3.109,40,30000
"CC(=O)N1CCC[C@]12CC=CCCCC1(CCCC=CCCCOC(=O)N3CC[C@@](C(=O)N[C@@H](Cc4ccccc4Cl)C(=O)N[C@@H](Cc4csc5ccccc45)C(=O)N[C@@H](CO)C(N)=O)(C3)NC(=O)[C@H]([C@@H](C)O)NC(=O)[C@H](Cc3ccccc3)NC(=O)[C@H](C)NC(=O)[C@H](C)NC(=O)[C@H](CC(=O)O)NC(=O)[C@H](CC(=O)O)NC1=O)NC(=O)[C@H](Cc1ccc3ccccc3c1)NC(=O)[C@H](CC(=O)O)NC2=O (stereo partly drawn) [I-1115, Ac-PL3-Asp-2NapA-B5-Asp-Asp-Ala-Ala-Phe-Thr-PyrS2-2C1F-BztA-Ser-NH2]",28,2.5,32,24300,–,–,–,–,–
"CC(=O)N1CCC[C@]12CC=CCCCC1(CCCC=CCCCCCC[C@@](C)(C(=O)N[C@@H](Cc3ccccc3Cl)C(=O)N[C@@H](Cc3csc4ccccc34)C(=O)N[C@@H](C(N)=O)[C@H](C)O)NC(=O)[C@H]([C@@H](C)O)NC(=O)[C@H](Cc3ccccc3)NC(=O)[C@H](C)NC(=O)[C@H](C)NC(=O)[C@H](CC(=O)O)NC(=O)[C@H](CC(=O)O)NC1=O)NC(=O)[C@H](CC(C)(C)C)NC(=O)[C@H](CC(=O)O)NC2=O (stereo partly drawn) [I-1092, Ac-PL3-Asp-Npg-B5-Asp-Asp-Ala-Ala-Phe-Thr-S8-2C1F-BztA-dThr-NH2]",26,3.17,28,7700,–,–,–,–,–
"CC(=O)N1CCC[C@]12CC=CCCCC1(CCCC=CCCCOC(=O)N3CC[C@@](C(=O)N[C@@H](Cc4ccccc4Cl)C(=O)N[C@@H](Cc4csc5ccccc45)C(=O)N[C@@H](CCC(N)=O)C(N)=O)(C3)NC(=O)[C@H](CO)NC(=O)[C@H](Cc3ccccc3)NC(=O)[C@H](C)NC(=O)[C@H](C)NC(=O)[C@H](CC(=O)O)NC(=O)[C@H](CC(=O)O)NC1=O)NC(=O)[C@H](Cc1ccc3ccccc3c1)NC(=O)[C@H](CC(=O)O)NC2=O (stereo partly drawn) [I-1109, Ac-PL3-Asp-2NapA-B5-Asp-Asp-Ala-Ala-Phe-Ser-PyrS2-2C1F-BztA-Gln-NH2]",24,2.31,45,> 20000,–,–,–,–,–
"CC(=O)N1CCC[C@]12CC=CCCCC1(CCCC=CCCCCCC[C@@](C)(C(=O)N[C@@H](Cc3ccccc3Cl)C(=O)N[C@@H](Cc3csc4ccccc34)C(=O)N[C@H](C(N)=O)[C@@H](C)O)NC(=O)[C@H]([C@@H](C)O)NC(=O)[C@H](Cc3ccccc3)NC(=O)[C@H](C)NC(=O)[C@H](C)NC(=O)[C@H](CC(=O)O)NC(=O)[C@H](CC(=O)O)NC1=O)NC(=O)[C@H](CC(C)(C)C)NC(=O)[C@H](CC(=O)O)NC2=O (stereo partly drawn) [I-1090, Ac-PL3-Asp-Npg-B5-Asp-Asp-Ala-Ala-Phe-Thr-S8-2C1F-BztA-Thr-NH2]",18,2.98,39,6100,–,–,–,–,–
"CC(=O)N1CCC[C@]12CC=CCCCC1(CCCC=CCCCOC(=O)N3CC[C@@](C(=O)N[C@@H](Cc4ccccc4Cl)C(=O)N[C@@H](Cc4csc5ccccc45)C(=O)N[C@@H](C(N)=O)[C@H](C)O)(C3)NC(=O)[C@H](CC(N)=O)NC(=O)[C@H](Cc3ccccc3)NC(=O)[C@H](C)NC(=O)[C@H](C)NC(=O)[C@H](CCC(=O)O)NC(=O)[C@H](CC(=O)O)NC1=O)NC(=O)[C@H](CC(C)(C)C)NC(=O)[C@H](CC(=O)O)NC2=O (stereo partly drawn) [I-1031, Ac-PL3-Asp-Npg-B5-Asp-Glu-Ala-Ala-Phe-Asn-PyrS2-2C1F-BztA-dThr-NH2]",11,2.42,47,–,–,–,–,–,8800
